US20060148030A1, “Nuclear receptor err y 3” (FUJISAWA PHARMACEUTICAL CO., LTD, priority 2002, published 2006)
Values belong to the molecule of their own block, whether it stands above or below them.

Biological target: T1, GR (Homo sapiens, UniProt P04150)
T1 construct: expressed in transfected cells; host or cells: CV-1 (African green monkey kidney)
T1 sequence (P04150 1-777): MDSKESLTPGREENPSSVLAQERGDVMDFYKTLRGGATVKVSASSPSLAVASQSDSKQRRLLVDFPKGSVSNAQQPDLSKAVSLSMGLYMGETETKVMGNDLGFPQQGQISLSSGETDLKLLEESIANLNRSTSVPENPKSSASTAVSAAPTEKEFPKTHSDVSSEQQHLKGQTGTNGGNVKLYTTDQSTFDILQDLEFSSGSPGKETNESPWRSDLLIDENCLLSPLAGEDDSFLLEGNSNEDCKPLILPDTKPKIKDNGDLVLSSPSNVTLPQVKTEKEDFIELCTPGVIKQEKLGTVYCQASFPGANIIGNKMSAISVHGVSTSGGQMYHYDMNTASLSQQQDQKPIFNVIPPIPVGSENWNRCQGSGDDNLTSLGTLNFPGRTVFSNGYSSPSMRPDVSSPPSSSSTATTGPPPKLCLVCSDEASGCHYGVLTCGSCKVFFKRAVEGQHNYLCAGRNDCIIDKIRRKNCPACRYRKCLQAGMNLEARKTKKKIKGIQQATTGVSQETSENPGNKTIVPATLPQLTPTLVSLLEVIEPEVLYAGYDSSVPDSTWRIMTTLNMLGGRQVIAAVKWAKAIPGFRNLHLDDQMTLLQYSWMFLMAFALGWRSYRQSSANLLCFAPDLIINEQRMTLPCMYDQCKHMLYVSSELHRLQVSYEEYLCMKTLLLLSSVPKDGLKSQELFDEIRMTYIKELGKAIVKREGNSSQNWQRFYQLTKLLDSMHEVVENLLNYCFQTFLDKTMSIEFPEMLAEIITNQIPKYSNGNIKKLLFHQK
Experiment: Reporter gene assay, ERRγ3 coexisted with GR, pGRE-luc in CV-1 cells
Format: cell-based
Settings: 10^−5 M dexamethasone
Method: Transfection was performed as follows: CV-1 cells were resuspended in DMEM supplemented with 10% fetal bovine serum, 2000 U/l of penicillin G, and 100 mg/l of streptomycin to a concentration of 2×10^5 cells/2.5 ml. This was then seeded to a 6-well plate at 2.5 ml per well, and incubated for 18-24 hours in a CO2 incubator at 37° C. and 5% CO2. 1 μg of each of the expression plasmids for the transcription factors, the luciferase reporter plasmid, and another luciferase reporter plasmid used for normalization of the measured values (pRL-TK), were dissolved in Opti-MEM (Gibco BRL), to a total of 150 μl. 7 μl of the transfection reagent LipofectAMINE 2000 (Gibco BRL) was diluted in 143 μl of Opti-MEM, and this was added to the mixture drop by drop while stirring. The mixture was incubated for 20 minutes. […] Luciferase activity was measured using the Dual-Luciferase™ Reporter Assay System (Promega). […] The protocol for measurement was as follows: 50 μl of Luciferase Assay Reagent II was added to each well, stirred for 0.3 seconds, and measured for one second. 50 μl of Stop&Glo™ Reagent was then added, stirred for 0.3 seconds, and measured for one second. The measured values for firefly luciferase activity were corrected by dividing by the value for the Renilla luciferase activity, the internal control. Average values and standard errors were calculated from triplicate samples. […]

effect of 4-hydroxytamoxifen on the inhibitory function of ERRγ3 on GR (10^−5 M 4-hydroxytamoxifen, FIG. 25B): reduced ERRγ3's inhibitory function
Molecule: 4-hydroxytamoxifen [reference compound]

B1: ERRγ3: novel ERRγ isoform, nuclear receptor protein of 396 amino acids (SEQ ID NO: 2) lacking part of the DNA binding domain (protein, listed as Homo sapiens)
chain: MSNKDRHIDSSCSSFIKTEPSSPASLTDSVNHHSPGGSSDASGSYSSTMNGHQNGLDSPPLYPSAPILGGSGPVRKLYDDCSSTIVEDPQTKCEYMLNSMPKRLCLVCGDIASGYHYGVASCEACKAFFKRTIQGVRLDRVRGGRQKYKRRIDAENSPYLNPQLAQPAKKPYNKIVSHLLVAEPEKIYAMPDPTVPDSDIKALTTLCDLADRELVVIIGWAKHIPGFSTLSLADQMSLLQSAWMEILILGVVYRSLSFEDELVYADDYIMDEDQSKLAGLLDLNNAILQLVKKYKSMKLEKEEFVTLKAIALANSDSMHIEDVEAVQKLQDVLHEALQDYEAGQHMEDPRRAGKMLMTLPLLRQTSTKAVQHFYNIKLEGKVPMHKLFLEMLEAKV
effect of ERRγ3 on the transcriptional stimulation activity of GR (FIG. 25): inhibited GR's transcriptional stimulation activity
